Earlier results, collected in patent US20250057795A1 (priority 2023, published 2025).
Read-outs that look alike come from different tables or passages of the source.

How the values were obtained:
[1] = compared with Levodopa; due to increased solubility
[2] = target: T1, GPR143 (Homo sapiens, UniProt P51810)
[3] = target: T1, GPR143; details: retinal pigment epithelial cells
[4] = target: T1, GPR143; details: same site as L-DOPA

T1 sequence (P51810 whole entry): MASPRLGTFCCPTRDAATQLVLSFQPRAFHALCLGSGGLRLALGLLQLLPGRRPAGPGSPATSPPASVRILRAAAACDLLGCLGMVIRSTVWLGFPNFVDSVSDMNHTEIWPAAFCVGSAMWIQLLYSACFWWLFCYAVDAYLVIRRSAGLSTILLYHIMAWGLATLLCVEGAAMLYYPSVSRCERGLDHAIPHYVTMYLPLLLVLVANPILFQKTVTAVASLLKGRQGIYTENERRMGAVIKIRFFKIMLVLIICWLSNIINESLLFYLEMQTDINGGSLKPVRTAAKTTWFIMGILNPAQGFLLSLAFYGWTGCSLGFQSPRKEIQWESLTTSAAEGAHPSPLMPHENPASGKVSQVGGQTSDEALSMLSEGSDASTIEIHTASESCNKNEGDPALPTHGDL

Compound: CCOC(=O)[C@@H](N)Cc1ccc(O)c(O)c1 [Etilevodopa]
- ocular penetration [1]: increased ocular penetration

Compound: N[C@@H](Cc1ccc(O)c(O)c1)C(=O)O [Levodopa]
- need for anti-VEGF injections ([2]; continued Levodopa therapy, compared to historical controls): decreased need for anti-VEGF injections
- vision ([2]; new onset nAMD, naive to anti-VEGF, 1 month): improved vision
- release / production of VEGF (and exosomes) [3]: downregulates the production of VEGF
- release of PEDF [3]: significantly upregulates
- release of PEDF ([3]; listed as L-DOPA): stimulated the release of PEDF

Compound: COc1ccc2[nH]cc(CCNC(C)=O)c2c1 [Melatonin]
- water solubility: practically insoluble

Compound: NCCc1ccc(O)c(O)c1 [dopamine]
- release / production of VEGF (and exosomes) [3]: stimulated the release of VEGF and exosomes
- affinity for GPR143 [4]: near-equal affinity to L-DOPA
